In patent US10696648B2, “Inhibitors of indoleamine 2,3-dioxygenase and methods of their use” (BRISTOL-MYERS SQUIBB COMPANY, priority 2016, dated 2020):

Target: T1, human IDO1 (Homo sapiens, UniProt P14902)
T1 construct: expressed in transfected cells
Experiment: HEK293 cells stably expressing human IDO1, IDO inhibition assay (kynurenine, Ehrlich reagent)
Assay type: cell-based
Conditions: 20 hours incubation, absorbance at 490 nm, read-out: HEK Human IDO-1 Bio Activity (IDO IC50)
Protocol: HEK293 cells were transfected with a pCDNA-based mammalian expression vector harboring human IDO1 cDNA (NM 002164.2) by electroporation. They were cultured in medium (DMEM with 10% FBS) containing 1 mg/ml G418 for two weeks. Clones of HEK293 cells that stably expressed human IDO1 protein were selected and expanded for IDO inhibition assay. The human IDO1/HEK293 cells were seeded at 10,000 cells per 50 μL per well with RPMI/phenol red free media contains 10% FBS in a 384-well black wall clear bottom tissue culture plate (Matrix Technologies LLC) 100 nL of certain concentration of compound was then added to each well using ECHO liquid handling systems. The cells were incubated for 20 hours in 37° C. incubator with 5% CO2. The compound treatments were stopped by adding trichloroacetic acid (Sigma-Aldrich) to a final concentration at 0.2%. The cell plate was further incubated at 50° C. for 30 minute. The equal volume supernatant (20 μL) and 0.2% (w/v) Ehrlich reagent (4-dimethylaminobenzaldehyde, Sigma-Aldrich) in glacial acetic acid were mixed in a new clear bottom 384-well plate. This plate was then incubated at room temperature for 30 minute. The absorbance at 490 nm was measured on Envision plate reader. Compound IC50 values were calculated using the counts of 500 nM of a reference standard treatment as one hundred percent inhibition, and counts of no compound but DMSO treatment as zero percent inhibition.

T1 sequence (P14902 whole entry): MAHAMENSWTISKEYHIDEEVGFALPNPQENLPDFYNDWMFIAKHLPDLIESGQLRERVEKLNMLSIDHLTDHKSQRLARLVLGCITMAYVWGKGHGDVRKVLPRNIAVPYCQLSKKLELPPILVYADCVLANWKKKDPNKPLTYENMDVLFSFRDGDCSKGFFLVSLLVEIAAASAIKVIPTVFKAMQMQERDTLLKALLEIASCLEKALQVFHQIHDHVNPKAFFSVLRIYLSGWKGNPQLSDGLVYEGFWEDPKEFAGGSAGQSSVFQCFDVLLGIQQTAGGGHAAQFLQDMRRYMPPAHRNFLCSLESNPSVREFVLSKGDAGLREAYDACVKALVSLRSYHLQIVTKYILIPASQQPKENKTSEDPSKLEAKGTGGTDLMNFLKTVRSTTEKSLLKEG

IC50 [µM] | SMILES
< 1 | CN(C(=O)Nc1ccc(Cl)cc1)C1CCN(c2ccnc3ccc(F)cc23)CC1 [Example 1, 3-(4-Chlorophenyl)-1-(1-(6-fluoroquinolin-4-yl)piperidin-4-yl)-1-methylurea]
< 0.1 | CCCCc1ccc(NC(=O)N(C)C2CCN(c3ccnc4ccc(F)cc34)CC2)cc1 [Example 2, 3-(4-Butylphenyl)-1-(1-(6-fluoroquinolin-4-yl)piperidin-4-yl)-1-methylurea]
< 1 | CN(C(=O)Nc1ccc(OC(F)(F)F)cc1)C1CCN(c2ccnc3ccc(F)cc23)CC1 [Example 3, 1-(1-(6-Fluoroquinolin-4-yl)piperidin-4-yl)-1-methyl-3-(4-(trifluoromethoxy)phenyl)urea]
< 0.1 | COc1ccc(CN(C(=O)Nc2ccc(Cl)cc2)[C@H]2CC[C@H](c3ccccc3)CC2)cc1 [Example 4, 3-(4-Chlorophenyl)-1-(4-methoxybenzyl)-1-((1r,4r)-4-phenylcyclohexyl)urea]
< 1 | COc1ccc(CN(C(=O)Nc2ccc(F)cc2F)[C@H]2CC[C@H](c3ccccc3)CC2)cc1 [Example 5, 3-(2,4-difluorophenyl)-1-(4-methoxybenzyl)-1-(trans-4-phenylcyclohexyl)urea]
< 1 | COc1ccc(CN(C(=O)Nc2ccc(F)c(F)c2)[C@H]2CC[C@H](c3ccccc3)CC2)cc1 [Example 8, 3-(3,4-difluorophenyl)-1-(4-methoxybenzyl)-1-(trans-4-phenylcyclohexyl)urea]
< 1 | COc1ccc(CN(C(=O)Nc2ccc(F)cc2)[C@H]2CC[C@H](c3ccccc3)CC2)cc1 [Example 9, 3-(4-fluorophenyl)-1-(4-methoxybenzyl)-1-(trans-4-phenylcyclohexyl)urea]
< 1 | COc1ccc(CN(C(=O)Nc2ccc(OC(F)(F)F)cc2)[C@H]2CC[C@H](c3ccccc3)CC2)cc1 [Example 10, 1-(4-methoxybenzyl)-1-(trans-4-phenylcyclohexyl)-3-(4-(trifluoromethoxy)phenyl)urea]
< 0.1 | COc1ccc(CN(C(=O)Nc2ccc(C(F)(F)F)cc2)[C@H]2CC[C@H](c3ccccc3)CC2)cc1 [Example 12, 1-(4-methoxybenzyl)-1-(trans-4-phenylcyclohexyl)-3-(4-(trifluoromethyl)phenyl)urea]
< 1 | CCOc1ccc(NC(=O)N(Cc2ccc(OC)cc2)[C@H]2CC[C@H](c3ccccc3)CC2)cc1 [Example 13, 3-(4-ethoxyphenyl)-1-(4-methoxybenzyl)-1-(trans-4-phenylcyclohexyl)urea]
< 0.1 | CN(C(=O)Nc1ccc(Cl)cc1)[C@H]1CC[C@H](c2ccnc3ccc(F)cc32)CC1 [Example 14, 3-(4-Chlorophenyl)-1-(trans-4-(6-fluoroquinolin-4-yl)cyclohexyl)-1-methylurea]
< 1 | CN(C(=O)Nc1ccc(Cl)cc1)[C@H]1CC[C@@H](c2ccnc3ccc(F)cc32)CC1 [Example 15, 3-(4-chlorophenyl)-1-(cis-4-(6-fluoroquinolin-4-yl)cyclohexyl)-1-methylurea]
< 0.1 | CCN(C(=O)Nc1ccc(Cl)cc1)[C@H]1CC[C@H](c2ccnc3ccc(F)cc32)CC1 [Example 16, 3-(4-Chlorophenyl)-1-ethyl-1-(trans-4-(6-fluoroquinolin-4-yl)cyclohexyl)urea]
< 1 | CCN(C(=O)Nc1ccc(Cl)cc1)[C@H]1CC[C@@H](c2ccnc3ccc(F)cc32)CC1 [Example 17, 3-(4-chlorophenyl)-1-ethyl-1-(cis-4-(6-fluoroquinolin-4-yl)cyclohexyl)urea]
< 0.1 | O=C(Nc1ccc(Cl)cc1)N(Cc1ccccc1)[C@H]1CC[C@H](c2ccnc3ccc(F)cc32)CC1 [Example 18, 1-benzyl-3-(4-chlorophenyl)-1-(trans-4-(6-fluoroquinolin-4-yl)cyclohexyl)urea]
< 0.1 | O=C(Nc1ccc(F)cc1)N(Cc1ccccc1)[C@H]1CC[C@H](c2ccnc3ccc(F)cc32)CC1 [Example 19, 1-benzyl-3-(4-fluorophenyl)-1-(trans-4-(6-fluoroquinolin-4-yl)cyclohexyl)urea]
< 1 | Cc1ccc(NC(=O)N(Cc2ccccc2)[C@H]2CC[C@H](c3ccnc4ccc(F)cc43)CC2)cc1 [Example 20, 1-benzyl-1-(trans-4-(6-fluoroquinolin-4-yl)cyclohexyl)-3-(p-tolyl)urea]

IC50 [µM] | SMILES
< 1 | O=C(Nc1ccc(Cl)cc1F)N(Cc1ccccc1)[C@H]1CC[C@H](c2ccnc3ccc(F)cc32)CC1 [Example 21, 1-benzyl-3-(4-chloro-2-fluorophenyl)-1-(trans-4-(6-fluoroquinolin-4-yl)cyclohexyl)urea]
< 10 | N#Cc1ccc(NC(=O)N(Cc2ccccc2)[C@H]2CC[C@H](c3ccnc4ccc(F)cc43)CC2)cc1 [Example 22, 1-benzyl-3-(4-cyanophenyl)-1-(trans-4-(6-fluoroquinolin-4-yl)cyclohexyl)urea]
< 1 | O=C(Nc1ccc(Cl)cc1)N(Cc1ccccc1)[C@H]1CC[C@@H](c2ccnc3ccc(F)cc32)CC1 [Example 23, 1-benzyl-3-(4-chlorophenyl)-1-(cis-4-(6-fluoroquinolin-4-yl)cyclohexyl)urea]
< 0.1 | O=C(Nc1ccc(Cl)cc1F)N(Cc1ccccc1)[C@H]1CC[C@@H](c2ccnc3ccc(F)cc32)CC1 [Example 24, 1-benzyl-3-(4-chloro-2-fluorophenyl)-1-(cis-4-(6-fluoroquinolin-4-yl)cyclohexyl)urea]
< 1 | O=C(O)Cc1ccc(CN(C(=O)Nc2ccc(Cl)cc2)[C@H]2CC[C@H](c3ccnc4ccc(F)cc43)CC2)cc1 [Example 25, 2-(4-((3-(4-chlorophenyl)-1-(trans-4-(6-fluoroquinolin-4-yl)cyclohexyl)ureido)methyl)phenyl)acetic Acid]
< 0.1 | O=C(O)Cc1ccc(CN(C(=O)Nc2ccc(Cl)cc2F)[C@H]2CC[C@H](c3ccnc4ccc(F)cc43)CC2)cc1 [Example 26, 2-(4-((3-(4-chloro-2-fluorophenyl)-1-(trans-4-(6-fluoroquinolin-4-yl)cyclohexyl)ureido)methyl)phenyl) acetic acid]
< 0.1 | O=C(O)Cc1ccc(CN(C(=O)Nc2ccccc2)[C@H]2CC[C@H](c3ccnc4ccc(F)cc43)CC2)cc1 [Example 27, 2-(4-((1-(trans-4-(6-fluoroquinolin-4-yl)cyclohexyl)-3-phenylureido)methyl)phenyl)acetic acid]
< 10 | O=C(O)Cc1ccc(CN(C(=O)Nc2ccc(Cl)cc2)[C@H]2CC[C@@H](c3ccnc4ccc(F)cc43)CC2)cc1 [Example 28, 2-(4-((3-(4-chlorophenyl)-1-(cis-4-(6-fluoroquinolin-4-yl)cyclohexyl)ureido)methyl)phenyl)acetic acid]
< 1 | COc1ccc(CN(C(=O)N[C@@H](C)c2ccc(Cl)cc2)[C@H]2CC[C@H](c3ccccc3)CC2)cc1 [Example 31, 3-((S)-1-(4-chlorophenyl)ethyl)-1-(4-methoxybenzyl)-1-((1r,4S)-4-phenylcyclohexyl)urea]
< 10 | COc1ccc(CN(C(=O)NCc2ccc(F)cc2)C2CCC(c3ccccc3)CC2)cc1 (stereo not shown) [Example 32, 3-(4-fluorobenzyl)-1-(4-methoxybenzyl)-1-((1r,4r)-4-phenylcyclohexyl)urea]
< 0.1 | COc1ccc(CN(C(=O)N[C@H](C)c2ccc(F)cc2)C2CCC(c3ccccc3)CC2)cc1 (stereo partly drawn) [Example 33, 3-((R)-1-(4-fluorophenyl)ethyl)-1-(4-methoxybenzyl)-1-((1r,4R)-4-phenylcyclohexyl)urea]
< 1 | C[C@H](NC(=O)N[C@H]1CC[C@H](c2ccnc3ccc(F)cc32)CC1)c1ccc(Cl)cc1 [Example 34, 1-((S)-1-(4-chlorophenyl)ethyl)-3-((1r,4S)-4-(6-fluoroquinolin-4-yl)cyclohexyl)urea]
< 1 | C[C@H](NC(=O)N[C@H]1CC[C@@H](c2ccnc3ccc(F)cc32)CC1)c1ccc(Cl)cc1 [Example 35, 1-((S)-1-(4-chlorophenyl)ethyl)-3-((1s,4R)-4-(6-fluoroquinolin-4-yl)cyclohexyl)urea]
< 1 | C[C@H](NC(=O)N(C)[C@H]1CC[C@H](c2ccnc3ccc(F)cc32)CC1)c1ccc(Cl)cc1 [Example 36, 3-((S)-1-(4-chlorophenyl)ethyl)-1-((1r,4S)-4-(6-fluoroquinolin-4-yl)cyclohexyl)-1-methylurea]
< 1 | CCN(C(=O)N[C@@H](C)c1ccc(Cl)cc1)[C@H]1CC[C@H](c2ccnc3ccc(F)cc32)CC1 [Example 37, 3-((S)-1-(4-chlorophenyl)ethyl)-1-ethyl-1-((1r,4S)-4-(6-fluoroquinolin-4-yl)cyclohexyl)urea]
< 10 | C[C@H](NC(=O)N(Cc1ccccc1)[C@H]1CC[C@H](c2ccnc3ccc(F)cc32)CC1)c1ccc(Cl)cc1 [Example 39, 1-benzyl-3-((S)-1-(4-chlorophenyl)ethyl)-1-((1r,4S)-4-(6-fluoroquinolin-4-yl)cyclohexyl)urea]
< 1 | C[C@@H](NC(=O)N(Cc1ccccc1)[C@H]1CC[C@H](c2ccnc3ccc(F)cc32)CC1)c1ccc(F)cc1 [Example 40, 1-benzyl-3-((R)-1-(4-fluorophenyl)ethyl)-1-((1r,4R)-4-(6-fluoroquinolin-4-yl)cyclohexyl)urea]
